This series in a line: Mammalian cell cytotoxicity assay (CellTiter-Glo). It is filed as cell-based, mouse. The following applies: mouse; NIH/3T3, 96 hours; read-out: CC50, 3T3 cell line. Here is the method: NIH/3T3 fibroblast cells were maintained in RPMI-1640 medium supplemented with 10% heat-inactivated FBS and 100 IU penicillin / 100 μg streptomycin per mL at 37°C / 5% CO2. For compound screening, cells were diluted to 4 × 10^4 cells / mL in assay medium (RPMI-1640, 5% FBS, and 100 IU penicillin / 100 μg streptomycin per mL) and seeded at 50 μL / well into 384-well plates. Following overnight incubation, compounds were added to each well (0.2% DMSO final concentration) and plates were further incubated for 96 hours. Cell viability was assessed using the CellTiter-Glo Luminescent Cell Viability Assay (Promega). Measured luminescence values were normalized to the value obtained for 0.2% DMSO, and plotted against the corresponding compound concentration for half maximal cytotoxic concentration (CC50) value determination.

The values below come from publication PMC4506092, “Utilizing Chemical Genomics to Identify Cytochrome b as a Novel Drug Target for Chagas Disease” (PLoS Pathogens, 2015).

Take `CCc1c(C)c(C#N)c2nc3ccccc3n2c1O` [GNF7686]: the CC50 was > 20 µM.
